Reference: patent publication EP4467141A1, “PYRAZOLO-QUINOLINES AS SELECTIVE INHIBITORS OF GENOTOXIC STRESS-INDUCED IKK/NF- KB PATHWAYS FOR CANCER THERAPY” (Max-Delbrück-Centrum für Molekulare Medizin in der …, priority 2023, dated 2024)

Tests used:
Test in all cases: Kinase panel study
Format in all cases: biochemical
Details in all cases: read-out: Percentage of inhibition; for inhibition at 1 µM: 1000nM; for inhibition at 10 µM: 10000nM
[1] = molecular target: T1, FRK (PTK5) (Homo sapiens, UniProt P42685)
T1 construct: purchased Thermo Fisher Scientific
How it was run: (§1)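 In vitro, kinase panel; ZLyte or Adapta SOP; single-concentration testing (1 or 10 µM); output = % inhibition, plus IC50 in panel.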

[2] = molecular target: T2, MET (cMet) (Homo sapiens, UniProt P08581)
T2 construct: purchased Thermo Fisher Scientific
T2 sequence (P08581 25-1390): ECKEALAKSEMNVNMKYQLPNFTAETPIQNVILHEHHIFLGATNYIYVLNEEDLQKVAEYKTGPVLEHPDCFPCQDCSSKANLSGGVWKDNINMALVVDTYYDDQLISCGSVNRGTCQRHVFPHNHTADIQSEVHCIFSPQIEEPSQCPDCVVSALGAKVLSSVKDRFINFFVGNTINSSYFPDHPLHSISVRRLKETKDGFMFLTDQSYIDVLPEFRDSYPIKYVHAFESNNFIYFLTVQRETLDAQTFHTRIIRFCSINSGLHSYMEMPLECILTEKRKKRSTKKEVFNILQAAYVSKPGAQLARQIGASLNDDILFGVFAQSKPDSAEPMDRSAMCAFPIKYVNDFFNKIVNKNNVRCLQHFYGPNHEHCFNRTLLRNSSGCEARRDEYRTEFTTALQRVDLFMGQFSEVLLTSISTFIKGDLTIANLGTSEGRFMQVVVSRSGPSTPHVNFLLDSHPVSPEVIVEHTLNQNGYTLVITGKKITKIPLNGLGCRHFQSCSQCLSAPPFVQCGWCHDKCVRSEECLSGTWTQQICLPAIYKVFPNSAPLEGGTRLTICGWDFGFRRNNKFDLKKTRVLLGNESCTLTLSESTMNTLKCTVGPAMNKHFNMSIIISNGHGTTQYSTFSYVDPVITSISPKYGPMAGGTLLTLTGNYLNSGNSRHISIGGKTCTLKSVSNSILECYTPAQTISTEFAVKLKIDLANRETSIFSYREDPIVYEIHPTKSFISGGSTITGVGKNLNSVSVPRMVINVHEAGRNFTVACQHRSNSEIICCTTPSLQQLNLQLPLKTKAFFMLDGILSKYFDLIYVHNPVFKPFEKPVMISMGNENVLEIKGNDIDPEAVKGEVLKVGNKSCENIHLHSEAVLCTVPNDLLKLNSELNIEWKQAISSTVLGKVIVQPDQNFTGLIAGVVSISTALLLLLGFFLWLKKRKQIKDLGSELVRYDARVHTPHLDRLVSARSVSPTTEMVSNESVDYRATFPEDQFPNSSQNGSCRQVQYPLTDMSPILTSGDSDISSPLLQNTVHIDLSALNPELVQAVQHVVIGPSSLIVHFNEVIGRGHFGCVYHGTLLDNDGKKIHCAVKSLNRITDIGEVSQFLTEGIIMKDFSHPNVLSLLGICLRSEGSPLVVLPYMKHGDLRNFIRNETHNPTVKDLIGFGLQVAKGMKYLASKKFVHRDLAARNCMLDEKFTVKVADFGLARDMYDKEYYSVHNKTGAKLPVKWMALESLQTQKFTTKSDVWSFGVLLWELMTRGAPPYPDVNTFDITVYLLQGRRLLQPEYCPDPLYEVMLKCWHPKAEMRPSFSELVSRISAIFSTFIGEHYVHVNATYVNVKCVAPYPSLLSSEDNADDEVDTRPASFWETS
How it was run: as §1

[3] = molecular target: T3, PRKCG (PKC gamma) (Homo sapiens, UniProt P05129)
T3 construct: purchased Thermo Fisher Scientific
How it was run: as §1

[4] = molecular target: T4, CDK5/p25 (Homo sapiens, UniProt Q00535)
T4 construct: purchased Thermo Fisher Scientific
T4 sequence (Q00535 whole entry): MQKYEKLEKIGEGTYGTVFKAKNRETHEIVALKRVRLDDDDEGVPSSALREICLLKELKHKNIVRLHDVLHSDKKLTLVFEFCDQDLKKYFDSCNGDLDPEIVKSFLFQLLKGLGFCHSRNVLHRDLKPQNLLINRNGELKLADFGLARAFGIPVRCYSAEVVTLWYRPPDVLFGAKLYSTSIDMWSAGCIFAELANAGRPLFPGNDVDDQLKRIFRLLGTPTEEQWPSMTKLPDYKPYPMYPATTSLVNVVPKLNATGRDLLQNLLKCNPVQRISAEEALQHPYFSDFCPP
T4 sequence (Q15078 99-307 partner limits assumed): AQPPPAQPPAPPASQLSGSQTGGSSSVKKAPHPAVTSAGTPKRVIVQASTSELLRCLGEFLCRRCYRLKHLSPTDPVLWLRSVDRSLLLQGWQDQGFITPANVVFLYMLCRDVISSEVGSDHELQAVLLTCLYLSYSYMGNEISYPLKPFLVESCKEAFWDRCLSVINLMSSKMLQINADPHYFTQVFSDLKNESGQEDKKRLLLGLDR
How it was run: as §1

[5] = molecular target: T5, PLK3 (Homo sapiens, UniProt Q9H4B4)
T5 construct: purchased Thermo Fisher Scientific
T5 sequence (Q9H4B4 whole entry): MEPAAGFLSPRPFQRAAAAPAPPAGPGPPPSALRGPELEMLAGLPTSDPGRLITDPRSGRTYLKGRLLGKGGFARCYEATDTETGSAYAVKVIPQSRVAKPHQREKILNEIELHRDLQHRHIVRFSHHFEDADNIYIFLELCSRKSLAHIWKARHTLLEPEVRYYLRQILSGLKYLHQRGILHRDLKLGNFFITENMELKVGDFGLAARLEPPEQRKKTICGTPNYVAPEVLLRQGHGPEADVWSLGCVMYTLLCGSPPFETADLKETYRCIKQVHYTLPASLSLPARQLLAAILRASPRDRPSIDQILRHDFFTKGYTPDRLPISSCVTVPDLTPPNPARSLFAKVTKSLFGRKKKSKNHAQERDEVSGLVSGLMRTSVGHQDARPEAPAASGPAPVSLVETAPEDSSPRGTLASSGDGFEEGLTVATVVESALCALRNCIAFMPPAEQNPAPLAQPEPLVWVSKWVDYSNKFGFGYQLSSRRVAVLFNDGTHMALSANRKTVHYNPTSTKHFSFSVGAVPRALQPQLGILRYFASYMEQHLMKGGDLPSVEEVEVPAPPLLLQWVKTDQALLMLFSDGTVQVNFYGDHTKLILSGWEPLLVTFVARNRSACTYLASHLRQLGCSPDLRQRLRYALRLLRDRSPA
How it was run: as §1

[6] = molecular target: T6, AMPK A1/B1/G1 (Homo sapiens, UniProt Q13131)
T6 construct: purchased Thermo Fisher Scientific
T6 sequence (Q13131 whole entry): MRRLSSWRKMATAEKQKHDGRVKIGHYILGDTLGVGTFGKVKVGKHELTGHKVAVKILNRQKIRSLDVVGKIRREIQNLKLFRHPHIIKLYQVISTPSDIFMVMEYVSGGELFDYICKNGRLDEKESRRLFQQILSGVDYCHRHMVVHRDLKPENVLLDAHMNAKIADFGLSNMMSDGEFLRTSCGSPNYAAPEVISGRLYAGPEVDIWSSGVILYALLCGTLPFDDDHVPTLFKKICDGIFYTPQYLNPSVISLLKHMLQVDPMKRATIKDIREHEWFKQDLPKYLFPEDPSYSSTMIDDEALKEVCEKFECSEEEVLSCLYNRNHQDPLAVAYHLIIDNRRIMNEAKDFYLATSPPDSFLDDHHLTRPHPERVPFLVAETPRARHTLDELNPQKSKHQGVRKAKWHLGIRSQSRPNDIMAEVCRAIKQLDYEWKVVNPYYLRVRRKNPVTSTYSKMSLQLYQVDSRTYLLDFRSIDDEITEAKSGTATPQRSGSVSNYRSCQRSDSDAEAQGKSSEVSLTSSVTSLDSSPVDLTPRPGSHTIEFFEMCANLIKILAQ
T6 sequence (Q9Y478 whole entry partner): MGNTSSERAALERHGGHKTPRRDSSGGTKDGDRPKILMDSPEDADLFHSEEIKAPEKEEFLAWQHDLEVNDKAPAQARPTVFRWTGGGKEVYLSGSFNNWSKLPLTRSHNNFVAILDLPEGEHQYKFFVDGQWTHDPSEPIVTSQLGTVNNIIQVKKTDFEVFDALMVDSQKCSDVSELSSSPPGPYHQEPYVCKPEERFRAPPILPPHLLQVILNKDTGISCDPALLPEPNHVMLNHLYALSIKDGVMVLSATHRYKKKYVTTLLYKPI
T6 sequence (P54619 whole entry partner): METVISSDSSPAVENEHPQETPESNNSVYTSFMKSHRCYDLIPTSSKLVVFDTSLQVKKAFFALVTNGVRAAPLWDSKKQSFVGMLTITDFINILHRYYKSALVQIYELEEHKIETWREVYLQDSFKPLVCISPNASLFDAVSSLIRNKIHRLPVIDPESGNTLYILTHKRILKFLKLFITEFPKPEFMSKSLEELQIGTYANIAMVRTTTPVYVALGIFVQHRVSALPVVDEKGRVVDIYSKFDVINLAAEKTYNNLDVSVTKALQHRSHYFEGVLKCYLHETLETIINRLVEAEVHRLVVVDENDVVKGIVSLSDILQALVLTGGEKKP
How it was run: as §1

[7] = molecular target: T7, GRK5 (Homo sapiens, UniProt P34947)
T7 construct: purchased Thermo Fisher Scientific
T7 sequence (P34947 whole entry): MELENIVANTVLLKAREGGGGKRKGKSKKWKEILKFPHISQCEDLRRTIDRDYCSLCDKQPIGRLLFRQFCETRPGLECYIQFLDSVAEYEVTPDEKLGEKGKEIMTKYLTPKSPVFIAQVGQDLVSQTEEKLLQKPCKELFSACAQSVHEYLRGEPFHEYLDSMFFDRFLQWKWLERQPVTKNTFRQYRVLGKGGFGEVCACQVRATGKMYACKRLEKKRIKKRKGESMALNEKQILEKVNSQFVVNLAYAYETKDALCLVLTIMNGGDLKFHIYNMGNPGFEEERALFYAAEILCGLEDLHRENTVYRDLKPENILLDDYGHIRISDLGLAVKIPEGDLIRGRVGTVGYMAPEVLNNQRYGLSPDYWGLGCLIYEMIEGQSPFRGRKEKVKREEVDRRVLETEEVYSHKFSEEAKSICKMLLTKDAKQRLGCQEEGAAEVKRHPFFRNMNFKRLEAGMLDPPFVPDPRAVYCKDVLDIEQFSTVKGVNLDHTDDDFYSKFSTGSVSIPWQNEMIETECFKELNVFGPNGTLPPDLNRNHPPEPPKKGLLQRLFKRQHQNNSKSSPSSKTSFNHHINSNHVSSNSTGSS
How it was run: as §1

[8] = molecular target: T8, PEAK1 (Homo sapiens, UniProt Q9H792)
T8 construct: purchased Thermo Fisher Scientific
How it was run: as §1

[9] = molecular target: T9, CSNK1G2 (CK1 gamma 2) (Homo sapiens, UniProt P78368)
T9 construct: purchased Thermo Fisher Scientific
T9 sequence (P78368 whole entry): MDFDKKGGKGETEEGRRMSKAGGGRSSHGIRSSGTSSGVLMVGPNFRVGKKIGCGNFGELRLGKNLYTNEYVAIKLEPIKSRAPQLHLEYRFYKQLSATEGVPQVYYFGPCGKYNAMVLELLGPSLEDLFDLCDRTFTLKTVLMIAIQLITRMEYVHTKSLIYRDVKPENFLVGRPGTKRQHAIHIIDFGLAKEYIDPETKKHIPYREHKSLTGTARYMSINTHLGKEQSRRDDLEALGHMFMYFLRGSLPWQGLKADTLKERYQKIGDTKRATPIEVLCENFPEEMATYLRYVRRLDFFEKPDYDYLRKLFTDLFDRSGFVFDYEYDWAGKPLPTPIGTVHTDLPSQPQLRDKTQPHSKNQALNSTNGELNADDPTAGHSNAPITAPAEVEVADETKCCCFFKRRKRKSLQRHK
How it was run: as §1

[10] = molecular target: T10, FYN (Homo sapiens, UniProt P06241)
T10 construct: purchased Thermo Fisher Scientific
How it was run: as §1

[11] = molecular target: T11, FGFR3 (Homo sapiens, UniProt P22607)
T11 construct: purchased Thermo Fisher Scientific
How it was run: as §1

[12] = molecular target: T12, CSNK1E (CK1 epsilon) R178C (Homo sapiens, UniProt P49674, R178C)
T12 construct: purchased Thermo Fisher Scientific
T12 sequence (P49674 1-416 R178C): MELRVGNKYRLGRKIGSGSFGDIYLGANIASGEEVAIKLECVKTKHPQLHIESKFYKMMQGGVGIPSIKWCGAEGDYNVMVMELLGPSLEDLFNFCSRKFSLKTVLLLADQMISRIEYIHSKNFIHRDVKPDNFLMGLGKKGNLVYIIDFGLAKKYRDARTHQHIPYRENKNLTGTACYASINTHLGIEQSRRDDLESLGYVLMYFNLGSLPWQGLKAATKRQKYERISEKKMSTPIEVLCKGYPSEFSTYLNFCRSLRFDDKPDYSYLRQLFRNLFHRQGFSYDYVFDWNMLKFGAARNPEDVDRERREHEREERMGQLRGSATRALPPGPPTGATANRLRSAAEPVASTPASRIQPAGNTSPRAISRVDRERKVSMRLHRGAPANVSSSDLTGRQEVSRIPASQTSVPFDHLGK
How it was run: as §1

| Structure (SMILES) | inhibition at 1 µM [1] | inhibition at 10 µM [1] | inhibition at 1 µM [2] | inhibition at 10 µM [2] | inhibition at 1 µM [3] | inhibition at 10 µM [3] | inhibition at 1 µM [4] | inhibition at 10 µM [4] | inhibition at 1 µM [5] | inhibition at 10 µM [5] | inhibition at 1 µM [6] | inhibition at 10 µM [6] | inhibition at 1 µM [7] | inhibition at 10 µM [7] | inhibition at 1 µM [8] | inhibition at 10 µM [8] | inhibition at 1 µM [9] | inhibition at 10 µM [9] | inhibition at 1 µM [10] | inhibition at 10 µM [10] | other results |
| --- | --- | --- | --- | --- | --- | --- | --- | --- | --- | --- | --- | --- | --- | --- | --- | --- | --- | --- | --- | --- | --- |
| COc1ccc2c(c1OC)c(=O)n1c3ccc(O)cc3c3ccnc2c31 [MW01, 5-Hydroxy-10,11-dimethoxy-9H-benzo[c]indolo[3,2,1-ij][1,5]naphthyridin-9-one] | 15% | 22% | 14% | 35% | 13% | 16% | 4% | 12% | 6% | 23% | 4% | 14% | -3% | 0% | -1% | 16% | 22% | 41% | 3% | 15% | inhibition at 1 µM [11]: 4%; inhibition at 10 µM [11]: 8%; inhibition at 1 µM [12]: 23%; inhibition at 10 µM [12]: 64% |
| COc1ccc2cc3c(N)nn(C(=O)c4cccc(N(C)C)c4)c3nc2c1 [MW05, (3-Amino-7-methoxypyrazolo[3,4-b]quinolin-1-yl)-[3-(dimethylamino)phenyl]methanone] | 9% | 6% | 5% | -8% | 11% | -3% | 4% | 8% | 5% | 12% | 6% | -3% | -2% | 0% | 2% | 0% | 4% | 13% | 4% | 5% | inhibition at 1 µM [11]: 1%; inhibition at 10 µM [11]: -8%; inhibition at 1 µM [12]: 0%; inhibition at 10 µM [12]: 6% |
